In patent publication US12628822B2, “Plant pathogen defence elicitors” (UNIVERSITÉ LIBRE DE BRUXELLES, priority 2020, dated 2026):

Key:
defence marker genes = assay: qPCR analysis of defence marker gene expression in Arabidopsis plants; format: in vivo, Arabidopsis thaliana
Experimental: Arabidopsis thaliana Columbia (Col-0) was the accession used for all the experiments. Seeds were surface sterilised by subsequent treatment with 50% v/v Et-OH and 3% bleach solution in agitation for 5 and 10 min, respectively. Seeds were then washed three times with distilled water and stratified for 3 days at 4° C. in the dark. For qPCR analysis and microarray experiments, seeds were sown on square petri dishes ([…]) containing half strength Murashige and Skoog (MS) salt, 2.5 mM MES, 1% w/v sucrose and 0.8% w/v plant agar. The experiments were performed using 14-day old seedlings grown vertically in a controlled growth cabinet with short day conditions ( 8/16 h light/dark; 100 μmol photons m^−2 s^−1) at 22±0.5° C. Treatments were performed by applying 40-50 μl of fresh-prepared and filtered solution per seedling.
For RNA extraction, 14-day old leaves from ten independent plants were collected at the indicated time point after treatments, pooled and frozen in liquid nitrogen. Total RNA was extracted from 100 mg of ground-frozen samples using the Maxwell® LEV Plant RNA Kit (Promega, Madison, WI, USA) and the RNA integrity was determined through NanoDrop 2000 UV-Vis Spectrophotometer (Thermo Scientific, Loughborough, UK). First-strand cDNA was synthesized by using SOLIScript® RT cDNA synthesis MIX (Solis Biodyne, Tartu, Estonia) and qPCRs were performed using SYBR® Selected MasterMix 2× (Applied Biosystems, Thermo Fisher Scientific, Waltham, USA), following the manufacturers' protocols. The cycling conditions consisted of an initial 7 min at 95° C., followed by 40 two-step cycles at 95° C. for 5 s and at 60° C. for 30 s. Melting curve analysis was performed after cycle completion to validate amplicon identity. Relative expression levels were calculated following the standard curve-based method (Larionov et al. A standard curve based method for relative real time PCR data processing, BMC Bioinformatics. 2005, vol. 6, 1) by using ACTIN as reference. Gene-specific primers used in this work are indicated below. […]

MPK3/6 = assay: Western-blot analysis of MPK3/6 phosphorylation; format: in vivo, Arabidopsis thaliana; settings: 100 μM, 5 mins after treatment, Col-0 plants
Experimental: FIG. 10d illustrates early immunohistochemical quantification or Western-blot analysis of the MPK3/6 phosphorylation after the indicated treatments. […] Leaves were collected 5 mins after treatment, immediately frozen in liquid nitrogen, and stored at −80° C. for analysis. […] The separated proteins were transferred on a 0.45-μm Immobilon-PPVDF membrane (Millipore). Blocking was performed in TBST containing 5% non-fat dry milk, and blots were incubated overnight at 4° C. with specific antibodies (anti-AtMPK6 and anti-Phospho-p44/42 MPK (Thr202/Tyr204)), washed in TBST, and incubated with the secondary antibody anti-Rabbit IgG conjugated with horseradish peroxidase (HRP) enzyme diluted to 1/10,000. The chemiluminescent detection of HRP was performed withClarity™Western ECL Substrate and ChemiDoc™MP Imaging System.

[1] = vs CTR, same array-hybridised RNA

For OC[C@H]1O[C@@H](O[C@H]2[C@H](O)[C@@H](O)[C@H](O)O[C@@H]2CO)[C@H](O)[C@@H](O)[C@@H]1O [Cellobiose, β-D-glucopyranosyl(1→4)D-glucopyranose], the “mRNA accumulation of MPK3/6, WRKY33, PAD3 and PEN3” value (defence marker genes; 100 μM, 1 and 24 hours, 14-day old plants) was “lower magnitude of expression”, the “LOX4 (AT1G72520) gene expression, qPCR” value (defence marker genes; [1]) was 0.69 fold change and the “MPK3 (AT3G45640) gene expression, qPCR” value (defence marker genes; [1]) was 0.02 fold change. The “MPK6 (AT2G43790) gene expression, qPCR” value (defence marker genes; [1]) was 0.55 fold change, the “PAD3 (AT3G26830) gene expression, qPCR” value (defence marker genes; [1]) was −1.06 fold change and the “PEN3 (AT1G59870) gene expression, qPCR” value (defence marker genes; [1]) was 1.07 fold change. For the same molecule, the “PR1 (AT2G14610) gene expression, qPCR” value (defence marker genes; [1]) was 1.29 fold change, the “WRKY18 (AT4G31800) gene expression, qPCR” value (defence marker genes; [1]) was 2.60 fold change and the “WRKY22 (AT4G01250) gene expression, qPCR” value (defence marker genes; [1]) was 1.10 fold change. The “WRKY33 (AT2G38470) gene expression, qPCR” value (defence marker genes; [1]) was 1.31 fold change, the “IGMT2 (At1G21120) gene expression, qPCR” value (defence marker genes; vs mock, same array-hybridised RNA) was −1.59 fold change and the “Early MPK3/6 phosphorylation” value (MPK3/6) was “no phosphorylation was observed”.
